# Source: paper PMC10876507, “Chelator impact: investigating the pharmacokinetic behavior of copper-64 labeled PD-L1 radioligands” (EJNMMI Radiopharmacy and Chemistry, 2024)
# Where “and” joins values, the source holds several entries; their conditions need not be identical. Identical values can stand only once.
# Columns and labels:
# [1] = n-octanol/PBS pH 7.4, shake flask
# Procedure: The n-octanol/water distribution coefficients for each radioligand were determined using the shake-flask method. Each experiment was conducted in triplicate. To initiate the experiment, 30 µL of the labeling mixture was combined with 570 µL of PBS (pH 7.4) and 600 µL of n-octanol in a 1.5 mL Eppendorf-Tube. The resulting mixture was shaken at room temperature at 1500 rpm for 5 min before undergoing centrifugation. An aliquot was extracted from each phase, and radioactivity was measured on a γ-counter (ISOMED 2160). Subsequently, mean values were calculated and adjusted for background activity. The log D7.4 value was determined utilizing the equation: logD7.4=logAn-octanol/APBS
# [2] = Proteolytic stability in human serum at 37 °C, radio-HPLC; type: in vitro ADME; conditions: 48 h
# Procedure: For proteolytic stability studies, a solution of the radiolabeled compound was diluted with human serum in a ratio of 1:10. This mixture then underwent incubation at 37 °C while being shaken at 300 rpm. At each designated timepoint (1, 24 and 48 h), an aliquot was withdrawn and added to a detergent solution (water with 20% v/v EtOH, 5% v/v 5 mM aqueous EDTA, 0.5% v/v Triton X-100, 0.1% m/v saponin, 0.05% v/v 0.5 mM aqueous o-phenanthroline) in a ratio of 1:2 for precipitation of serum proteins. The mixture was cooled on ice for 5 min, followed by centrifugation at 12,000 g for 5 min. A minor portion of the resulting supernatant was subjected to analytical radio-HPLC (reversed-phase, Phenomenex Jupiter 300 C-18, 5 µm, 4.6 × 250 mm) with 10–95% acetonitrile (0.1% TFA) in water (0.1% TFA) in a linear gradient over 15 min, 1 mL/min, γ-detection). The assessment and graphical representations were performed using OriginPro® 9.0.
# [3] = system: PC3 PD-L1 overexpressing and PD-L1-mock tumors; assay: PET imaging in NMRI-nude mice bearing PC3 PD-L1 and PC3 mock tumors; type: in vivo; conditions: for excretion pattern / clearance route in PET: PET 0–25 h p.i.; for SUVmax PC3 PD-L1 tumor / SUVmax PC3 mock tumor / SUVmax kidney / SUVmax liver: tracer only, i.v.
# Procedure: Male athymic NMRI-nude mice (Rj:NMRI-Foxn1nu, Janvier Labs, Le Genest-Saint-Isle, France) aged between 8 to 16 weeks were employed for the study. General anesthesia was induced [~ 10% desflurane (Baxter, Deerfield, IL, USA) in 30 vol% oxygen + air] under controlled warming (37°C), and mice were subcutaneously injected with 3–5 × 10^6 PC3 PD-L1 and PC3 mock cells (in 50 µL PBS + 50 µL Matrigel, Corning, Glendale, CA, USA) into the right and left thigh, respectively. The growth of tumors was systematically monitored three times per week through caliper measurements, and animals with tumor sizes above 7 mm were included in the subsequent experiments.
# PET and X-ray computed tomography (CT) scans were conducted under general anesthesia using a small animal nanoScan PET/CT scanner (Mediso, Budapest, Hungary), capable of imaging four animals simultaneously. CT images served attenuation correction and anatomical referencing. A total of three individual scans were conducted, corresponding to the timeframes of 0–2 h (dynamic reconstruction), 4–5 h, and 24–25 h (one frame reconstruction) after injection.
# The PD-L1 radiotracer candidates (in 300 µL sterile 0.9% NaCl/HEPES buffer, pH 6–7, containing between 7 and 12 MBq, with molar activities exceeding 12 GBq/µmol) were intravenously delivered over 30 s through a catheter in the lateral tail vein. The PET acquisition was initiated simultaneously with the administration.
# The acquired three-dimensional list mode data were sorted and binned within a 400–600 keV energy window, forming […] (15 × 10 s, 5 × 30 s, 5 × 60 s, 4 × 300 s, 3 × 600 s, 3 × 1200 s). Reconstruction of the time frames was accomplished using the Tera-TomoTM 3D algorithm, utilizing a voxel size of 0.4 mm and applying corrections for decay, scatter, and attenuation. The images were subjected to post-processing and analysis using Rover software (ABX GmbH, Radeberg, Germany), and were depicted as maximum intensity projections (MIPs) at the specified timepoints and scaling.
# Three-dimensional volumes of interest were defined using fixed thresholding at 35–40% of the maximal measured intensity. Standardized uptake values (SUV = [MBq detected activity/mL tissue] / [MBq injected activity/g body weight], in mL/g) were then calculated within the selected volumes of interest, encompassing PD-L1 and mock tumors, as well as metabolizing organs.
# PD-L1 [4] = target: T1, PD-L1 (Homo sapiens, UniProt Q9NZQ7); assay: Real-time radioligand binding (LigandTracer) on PC3 PD-L1 overexpressing cells, without BSA; set-up: expressed in transfected cells; host or cells: PC3 PD-L1 overexpressing cells
# Procedure: For the saturation binding experiments, cells were detached with 0.05% Trypsin–EDTA (Gibco, USA), and counted (CASY1 cell counter, Schaerfe System, Reutlingen, Germany). Cells were then diluted in medium to ~ 160,000 cells/mL and seeded in 48 well plates (Falcon Multiwell #353078, ThermoFisher, Karlsruhe, Germany) for at least 2 days prior to saturation binding experiments. For real-time radioligand binding, approximately 400,000 cells/mL were seeded into one side of petri dishes (3 mL, Nunclon, # 150350, ThermoFisher Germany) ~ 24 h before the experiments.
# To investigate binding kinetics, including the association rate constant (ka) and dissociation rate constant (kd), as well as the dissociation constant (KD), a real-time assay system (LigandTracer Yellow or LigandTracer White, Ridgeview Instruments AB, Uppsala, Sweden) was utilized. The petri dish contained attached cells in medium (3 mL) on one side, while radioactivity was detected on the opposing side. The petri dish is set upon an inclined base, allowing continuous measurement of alternating portions of the dish for bound radioligand (cells) compared to the background signal (no cells). Binding experiments were carried out at room temperature using CO2-independent medium (Gibco #18045088, ThermoFisher Germany).
# The association phase consisted of incubation with two concentrations (30 and 90 nM, each for 90 min) of our ^64Cu-labeled PD-L1-radioligands, binding to PC3 PD-L1 overexpressing cells. Following this, the incubation medium was replaced with fresh medium, and the dissociation phase was monitored for a minimum of 2 h. […] Data were recorded as decay-corrected counts per second (CPS). Subsequently, binding data were analyzed using TraceDrawer software (version 1.9.2, Ridgeview Instruments AB, Uppsala, Sweden). Traces were imported, potential spikes (instances of sudden CPS increases exceeding 100% of the previous data point) were eliminated, and each trace was normalized to its own baseline (set as 0%) and its maximum value (set as 100%).
# PD-L1 [5] = target: T1, PD-L1; assay: Saturation binding assay on human PD-L1 transduced PC3 cells (assay buffer with 2.5% BSA); set-up: expressed in transfected cells; host or cells: PC3 cells transduced with human PD-L1 (PC3-PD-L1)
# [6] = tracer +500 nM respective unlabeled compound, 1-2 hour p.i., mice
# [7] = tracer +500 nM respective unlabeled compound, 4-5 hour p.i., mice
# [8] = tracer +500 nM respective unlabeled compound, 24-25 hour p.i., mice
# [9] = 1-2 hour p.i., mice, listed as [64Cu]Cu-15
# [10] = 1-2 hour p.i., mice, listed as [64Cu]Cu-17
# [11] = 4-5 hour p.i., mice, listed as [64Cu]Cu-17
# [12] = 24-25 hour p.i., mice, listed as [64Cu]Cu-17
# T1 sequence (Q9NZQ7 19-290): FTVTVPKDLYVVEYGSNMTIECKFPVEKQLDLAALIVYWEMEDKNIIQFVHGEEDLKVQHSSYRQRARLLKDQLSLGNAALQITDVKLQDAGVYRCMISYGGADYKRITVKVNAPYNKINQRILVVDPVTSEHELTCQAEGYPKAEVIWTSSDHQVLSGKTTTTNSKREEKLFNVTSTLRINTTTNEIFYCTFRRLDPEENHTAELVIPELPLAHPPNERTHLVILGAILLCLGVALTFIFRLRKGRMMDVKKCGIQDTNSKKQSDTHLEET
smiles,measurement,setting,value
Cc1c(COc2cc(OCc3cncc(S(C)(=O)=O)c3)c(CN[C@@H](CS(=O)(=O)O)C(=O)NCCS(=O)(=O)O)cc2Br)cccc1-c1cccc(OCc2cn(CCCN3CCN(C(=O)[C@H](CS(=O)(=O)O)NC(=O)CN4CCCN5CCN(CCCN(CC(=O)[O-])CC5)CC4)CC3)nn2)c1C.[64Cu+2] [[^64Cu]Cu-15],Log D7.4,[1],–2.11 ± 0.02
same,intact radioligand after incubation in human serum,[2],88%
same,PD-L1 tumor uptake after preinjection of 500 nmol of cold ligand,"[3]; blocking, mice",not significantly reduced
same,excretion pattern / clearance route in PET,[3]; mice,hepatobiliary excretion pattern
same,"SUVmax PC3 PD-L1 tumor, blocking","[3]; tracer +500 nM respective unlabeled compound (injected 5 min prior), 1-2 hour p.i., mice",1.58
same,"SUVmax PC3 mock tumor, blocking",[3]; [6],1.17
same,"SUVmax kidney, blocking",[3]; [6],7.41
same,"SUVmax liver, blocking",[3]; [6],1.49
same,"SUVmax PC3 PD-L1 tumor, blocking",[3]; [7],0.77
same,"SUVmax PC3 mock tumor, blocking",[3]; [7],0.57
same,"SUVmax kidney, blocking",[3]; [7],0.78
same,"SUVmax liver, blocking",[3]; [7],1.82
same,"SUVmax PC3 PD-L1 tumor, blocking",[3]; [8],0.91
same,"SUVmax PC3 mock tumor, blocking",[3]; [8],0.78
same,"SUVmax kidney, blocking",[3]; [8],0.51
same,"SUVmax liver, blocking",[3]; [8],0.78
same,SUVmax PC3 PD-L1 tumor,"[3]; 1-2 hour p.i., mice",1.03 ± 0.23
same,SUVmax PC3 mock tumor,"[3]; 1-2 hour p.i., mice",0.61
same,SUVmax kidney,"[3]; 1-2 hour p.i., mice",3.26 ± 0.98
same,SUVmax liver,"[3]; 1-2 hour p.i., mice",3.80 ± 0.33
same,SUVmax PC3 PD-L1 tumor,[3]; [9],1.03
same,SUVmax kidney,[3]; [9],3.26
same,SUVmax liver,[3]; [9],3.80
same,SUVmax PC3 PD-L1 tumor,"[3]; 4-5 hour p.i., mice",0.66 ± 0.16
same,SUVmax PC3 mock tumor,"[3]; 4-5 hour p.i., mice",0.44
same,SUVmax kidney,"[3]; 4-5 hour p.i., mice",0.68
same,SUVmax liver,"[3]; 4-5 hour p.i., mice",1.41
same,SUVmax PC3 PD-L1 tumor,"[3]; 4-5 hour p.i., mice, listed as [64Cu]Cu-15",0.66
same,SUVmax PC3 PD-L1 tumor,"[3]; 24-25 hour p.i., mice",0.90 ± 0.09
same,SUVmax PC3 mock tumor,"[3]; 24-25 hour p.i., mice",0.76
same,SUVmax kidney,"[3]; 24-25 hour p.i., mice",0.48
same,SUVmax liver,"[3]; 24-25 hour p.i., mice",1.01
same,SUVmax PC3 PD-L1 tumor,"[3]; 24-25 hour p.i., mice, listed as [64Cu]Cu-15",0.90
same,Kd,"PD-L1 [4]; PC3 PD-L1 overexpressing cells, room temperature, without BSA",~20 nM and 19.1 nM
same,ka,"PD-L1 [4]; association rate constant, real-time binding",(5.10 ± 0.55) × 10^3 (M × s)^–1
same,kd,"PD-L1 [4]; dissociation rate constant, real-time binding",(0.96 ± 0.02) × 10^–4 s^–1
same,Kd,"PD-L1 [5]; human PD-L1 transduced PC3 cells, on ice 90 min, PBS + 2.5% w/v BSA",185 nM
same,Bmax,"PD-L1 [5]; saturation binding, pmol/mg protein, PC3 PD-L1 cells",2.58 ± 0.35 pmol/mg
Cc1c(COc2cc(OCc3cncc(S(C)(=O)=O)c3)c(CN[C@@H](CS(=O)(=O)O)C(=O)NCCS(=O)(=O)O)cc2Br)cccc1-c1cccc(OCc2cn(CCCN3CCN(C(=O)[C@H](CS(=O)(=O)O)NC(=O)CCCC(=O)NC45CNCCNCC(NC(=O)CCCC(=O)N[C@@H](CS(=O)(=O)O)C(=O)N6CCN(CCCn7cc(COc8cccc(-c9cccc(COc%10cc(OCc%11cncc(S(C)(=O)=O)c%11)c(CN[C@@H](CS(=O)(=O)O)C(=O)NCCS(=O)(=O)O)cc%10Br)c9C)c8C)nn7)CC6)(CNCCNC4)CNCCNC5)CC3)nn2)c1C.[64Cu+2] [[^64Cu]Cu-17],intact radioligand after incubation in human serum,[2],86%
same,contrast of PD-L1 positive tumor to PD-L1 negative tumor,[3]; 24–25 h p.i.,109%
same,excretion pattern / clearance route in PET,[3]; mice,rather renal than hepatobiliary clearance
same,SUVmax PC3 PD-L1 tumor,"[3]; 1-2 hour p.i., mice",0.49 ± 0.11
same,SUVmax PC3 mock tumor,"[3]; 1-2 hour p.i., mice",0.31
same,SUVmax kidney,"[3]; 1-2 hour p.i., mice",1.32 ± 0.47
same,SUVmax liver,"[3]; 1-2 hour p.i., mice",17.0 ± 1.48
same,SUVmax PC3 PD-L1 tumor,[3]; [10],0.49
same,SUVmax kidney,[3]; [10],1.32
same,SUVmax liver,[3]; [10],17.03
same,SUVmax PC3 PD-L1 tumor,"[3]; 4-5 hour p.i., mice",0.81
same,SUVmax PC3 mock tumor,"[3]; 4-5 hour p.i., mice",0.50
same,SUVmax kidney,"[3]; 4-5 hour p.i., mice",2.18 ± 0.80
same,SUVmax liver,"[3]; 4-5 hour p.i., mice",14.4 ± 1.26
same,SUVmax kidney,[3]; [11],2.18
same,SUVmax liver,[3]; [11],14.35
same,SUVmax PC3 PD-L1 tumor,"[3]; 24-25 hour p.i., mice",2.47 ± 1.04
same,SUVmax PC3 mock tumor,"[3]; 24-25 hour p.i., mice",1.18
same,SUVmax kidney,"[3]; 24-25 hour p.i., mice",2.40 ± 0.60
same,SUVmax liver,"[3]; 24-25 hour p.i., mice",8.62 ± 0.84
same,SUVmax PC3 PD-L1 tumor,[3]; [12],2.47
same,SUVmax kidney,[3]; [12],2.40
same,SUVmax liver,[3]; [12],8.62
